Measurements: US10738080B2, “Inhibitors of beta integrin-G protein alpha subunit binding interactions” (priority 2010, dated 2020)
No end group written: not given here. *: point of attachment. Myristoyl = CCCCCCCCCCCCCC(=O)*

What was measured:
[1] = target: talin association with β3 (Homo sapiens, UniProt Q9Y490); settings: 500 μM peptide, 0.025 U/ml thrombin at 22° C.
Protocol: Cell lysates were incubated with rabbit anti-Gα13 IgG (1.5 μg/ml), anti-integrin β3 rabbit serum (5 μl/ml) or an equal amount of rabbit IgG or pre-immune serum at 4° C. overnight, and subsequently with protein A-conjugated Sepharose beads for 1 hour. For the integrin β3 clustering experiment, human platelets (3×10^8) were stimulated with 0.025 U/ml α-thrombin for 2 minutes at room temperature (to avoid platelet aggregation) with or without 2 mM RGDS, then incubated with 5 μl anti-integrin β3 8053 rabbit serum at room temperature for 1 hour, and 5 μg goat anti-rabbit secondary antibody for another 1 hour. Platelets were then solubilized in modified RIPA Buffer. For the un-clustering control and pre-immune serum control, cells were solubilized in modified RIPA Buffer first, than incubated with 5 μl 8053 serum or pre-immune serum. After 3-6 washes with lysis buffer, immunoprecipitates were analyzed by SDS-polyacrylamide gel electrophoresis and Western blots using antibodies against β3, talin, or Gα13. In some experiments, 500 μM control or inhibitor peptides, mP5, mP7 and mP13 were incubated with platelet lysates prior to immunoprecipitation, or 2 mM RGDS was added into washed human platelets before stimulation by 0.025 U/ml α-thrombin. GST bead pull down analysis was previously described^8. […] Bead-bound proteins were analyzed by immunoblotting.

Gα13 binding to β3 = target: T1, Gα13 binding to β3 (Homo sapiens, UniProt P05106+Q14344); assay: Co-immunoprecipitation of β3 with Gα13 from platelet lysates; settings: for co-immunoprecipitation between Gα13 and β3: platelets/platelet lysates, 500 μM peptide
T1 construct: Proteins from platelet lysates were immunoprecipitated with control IgG or antibody to Gα13; The integrin αIIbβ3 was co-immunoprecipitated by anti-Gα13 antibody, but not control IgG, from platelet lysates; endogenous in cells; host or cells: washed human platelets (lysates)
T1 sequence (Q14344 1-377): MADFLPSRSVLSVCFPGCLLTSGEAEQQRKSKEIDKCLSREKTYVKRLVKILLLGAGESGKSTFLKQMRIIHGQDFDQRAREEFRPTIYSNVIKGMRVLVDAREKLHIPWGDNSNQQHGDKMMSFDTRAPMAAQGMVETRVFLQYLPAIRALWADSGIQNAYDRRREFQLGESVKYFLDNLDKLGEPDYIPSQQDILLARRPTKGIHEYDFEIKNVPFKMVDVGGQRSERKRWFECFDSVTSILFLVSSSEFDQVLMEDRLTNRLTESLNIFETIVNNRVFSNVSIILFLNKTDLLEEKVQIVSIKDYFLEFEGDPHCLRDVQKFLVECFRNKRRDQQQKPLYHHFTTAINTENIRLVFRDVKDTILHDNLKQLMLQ
T1 sequence (P05106 27-788): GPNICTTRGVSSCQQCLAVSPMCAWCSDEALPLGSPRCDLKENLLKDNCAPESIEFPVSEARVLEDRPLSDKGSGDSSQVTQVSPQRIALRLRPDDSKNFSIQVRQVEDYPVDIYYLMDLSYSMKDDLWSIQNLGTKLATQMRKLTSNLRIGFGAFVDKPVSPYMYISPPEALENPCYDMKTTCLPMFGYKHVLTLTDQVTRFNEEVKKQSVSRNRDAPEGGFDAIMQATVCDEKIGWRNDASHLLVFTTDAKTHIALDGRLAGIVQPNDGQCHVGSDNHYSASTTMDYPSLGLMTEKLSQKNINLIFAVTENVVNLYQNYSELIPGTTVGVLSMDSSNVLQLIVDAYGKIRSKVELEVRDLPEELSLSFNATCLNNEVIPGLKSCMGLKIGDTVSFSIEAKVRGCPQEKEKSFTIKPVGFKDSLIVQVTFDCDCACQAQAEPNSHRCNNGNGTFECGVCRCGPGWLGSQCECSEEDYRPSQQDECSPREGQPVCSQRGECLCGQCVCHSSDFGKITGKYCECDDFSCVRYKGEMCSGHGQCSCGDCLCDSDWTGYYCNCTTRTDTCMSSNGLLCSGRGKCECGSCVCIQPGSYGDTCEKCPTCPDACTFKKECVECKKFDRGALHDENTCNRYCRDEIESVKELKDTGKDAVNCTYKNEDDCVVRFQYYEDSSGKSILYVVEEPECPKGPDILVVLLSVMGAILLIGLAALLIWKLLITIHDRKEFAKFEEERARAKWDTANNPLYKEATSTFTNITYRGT
Protocol: As previously described (S7), cell lysates were incubated with 2 μg/ml of D57 (antibody to integrin αIIbβ3), LJP3 (antibody against GPIb), or mouse IgG, and further incubated with protein G-conjugated Sepharose beads. Cell lysates were also incubated with rabbit anti-Gα13 IgG antibody (1.5 μg/ml) or an equal amount of rabbit IgG and further incubated with protein A-conjugated Sepharose beads. After 3-6 washes with lysis buffer, immunoprecipitates were analyzed by SDS-polyacrylamide gel electrophoresis and Western blots with antibodies against β3 (MAb15), GPIb (anti-IbαC (S8)) or Gα13. In some experiments, 1 μM GDP, 1 μM GTPγS or 30 μM AlF4^− were added to the reaction to assess the effect of Gα13 activation on integrin binding. In other experiments, 250 μM mSRI or scrambled control peptide was incubated with platelet lysates prior to immunoprecipitation. GST bead pull down analysis was previously described (S7). Purified Gα13 was incubated with glutathione beads-bound to GST, GST-β1CD or GST-β3 CD at 4° C. overnight. Bead-bound proteins were analyzed by immunoblotting. For GST-β3CD cDNA construction, integrin-β3 cytoplasmic domain (716-762) cDNA was generated by PCR and cloned into pGEX-4T2 vector using Bam HI and Xho I restriction sites. The forward primer is 5′-[…]-3′ (SEQ ID NO: 48); the reverse primer is 5′-[…]-3′ (SEQ ID NO: 49). For GST-I31CD cDNA construction, β1 cytoplasmic domain (752-798) cDNA was amplified by PCR and cloned into pGEX-4T1 vector using EcoRI and Xho I restriction sites. The primer sequences are: (1) forward: 5′-[…]-3′ (SEQ ID NO: 50); (2) reverse: […]-3′ (SEQ ID NO: 51). GST, GST-β1CD and GST-β3CD were purified from BL21 (DE3) E. coli using glutathione-conjugated beads.
Cell lysates were incubated with rabbit anti-Gα13 IgG (1.5 μg/ml), anti-integrin β3 rabbit serum (5 μl/ml) or an equal amount of rabbit IgG or pre-immune serum at 4° C. overnight, and subsequently with protein A-conjugated Sepharose beads for 1 hour. For the integrin β3 clustering experiment, human platelets (3×10^8) were stimulated with 0.025 U/ml α-thrombin for 2 minutes at room temperature (to avoid platelet aggregation) with or without 2 mM RGDS, then incubated with 5 μl anti-integrin β3 8053 rabbit serum at room temperature for 1 hour, and 5 μg goat anti-rabbit secondary antibody for another 1 hour. Platelets were then solubilized in modified RIPA Buffer. For the un-clustering control and pre-immune serum control, cells were solubilized in modified RIPA Buffer first, than incubated with 5 μl 8053 serum or pre-immune serum. After 3-6 washes with lysis buffer, immunoprecipitates were analyzed by SDS-polyacrylamide gel electrophoresis and Western blots using antibodies against β3, talin, or Gα13. In some experiments, 500 μM control or inhibitor peptides, mP5, mP7 and mP13 were incubated with platelet lysates prior to immunoprecipitation, or 2 mM RGDS was added into washed human platelets before stimulation by 0.025 U/ml α-thrombin. GST bead pull down analysis was previously described^8. Purified Gα13 or MBP-talin head were incubated with glutathione beads-bound to GST or GST-β3CD at 4° C. overnight. Bead-bound proteins were analyzed by immunoblotting.

Sequence of talin association with β3 (Q9Y490 whole entry): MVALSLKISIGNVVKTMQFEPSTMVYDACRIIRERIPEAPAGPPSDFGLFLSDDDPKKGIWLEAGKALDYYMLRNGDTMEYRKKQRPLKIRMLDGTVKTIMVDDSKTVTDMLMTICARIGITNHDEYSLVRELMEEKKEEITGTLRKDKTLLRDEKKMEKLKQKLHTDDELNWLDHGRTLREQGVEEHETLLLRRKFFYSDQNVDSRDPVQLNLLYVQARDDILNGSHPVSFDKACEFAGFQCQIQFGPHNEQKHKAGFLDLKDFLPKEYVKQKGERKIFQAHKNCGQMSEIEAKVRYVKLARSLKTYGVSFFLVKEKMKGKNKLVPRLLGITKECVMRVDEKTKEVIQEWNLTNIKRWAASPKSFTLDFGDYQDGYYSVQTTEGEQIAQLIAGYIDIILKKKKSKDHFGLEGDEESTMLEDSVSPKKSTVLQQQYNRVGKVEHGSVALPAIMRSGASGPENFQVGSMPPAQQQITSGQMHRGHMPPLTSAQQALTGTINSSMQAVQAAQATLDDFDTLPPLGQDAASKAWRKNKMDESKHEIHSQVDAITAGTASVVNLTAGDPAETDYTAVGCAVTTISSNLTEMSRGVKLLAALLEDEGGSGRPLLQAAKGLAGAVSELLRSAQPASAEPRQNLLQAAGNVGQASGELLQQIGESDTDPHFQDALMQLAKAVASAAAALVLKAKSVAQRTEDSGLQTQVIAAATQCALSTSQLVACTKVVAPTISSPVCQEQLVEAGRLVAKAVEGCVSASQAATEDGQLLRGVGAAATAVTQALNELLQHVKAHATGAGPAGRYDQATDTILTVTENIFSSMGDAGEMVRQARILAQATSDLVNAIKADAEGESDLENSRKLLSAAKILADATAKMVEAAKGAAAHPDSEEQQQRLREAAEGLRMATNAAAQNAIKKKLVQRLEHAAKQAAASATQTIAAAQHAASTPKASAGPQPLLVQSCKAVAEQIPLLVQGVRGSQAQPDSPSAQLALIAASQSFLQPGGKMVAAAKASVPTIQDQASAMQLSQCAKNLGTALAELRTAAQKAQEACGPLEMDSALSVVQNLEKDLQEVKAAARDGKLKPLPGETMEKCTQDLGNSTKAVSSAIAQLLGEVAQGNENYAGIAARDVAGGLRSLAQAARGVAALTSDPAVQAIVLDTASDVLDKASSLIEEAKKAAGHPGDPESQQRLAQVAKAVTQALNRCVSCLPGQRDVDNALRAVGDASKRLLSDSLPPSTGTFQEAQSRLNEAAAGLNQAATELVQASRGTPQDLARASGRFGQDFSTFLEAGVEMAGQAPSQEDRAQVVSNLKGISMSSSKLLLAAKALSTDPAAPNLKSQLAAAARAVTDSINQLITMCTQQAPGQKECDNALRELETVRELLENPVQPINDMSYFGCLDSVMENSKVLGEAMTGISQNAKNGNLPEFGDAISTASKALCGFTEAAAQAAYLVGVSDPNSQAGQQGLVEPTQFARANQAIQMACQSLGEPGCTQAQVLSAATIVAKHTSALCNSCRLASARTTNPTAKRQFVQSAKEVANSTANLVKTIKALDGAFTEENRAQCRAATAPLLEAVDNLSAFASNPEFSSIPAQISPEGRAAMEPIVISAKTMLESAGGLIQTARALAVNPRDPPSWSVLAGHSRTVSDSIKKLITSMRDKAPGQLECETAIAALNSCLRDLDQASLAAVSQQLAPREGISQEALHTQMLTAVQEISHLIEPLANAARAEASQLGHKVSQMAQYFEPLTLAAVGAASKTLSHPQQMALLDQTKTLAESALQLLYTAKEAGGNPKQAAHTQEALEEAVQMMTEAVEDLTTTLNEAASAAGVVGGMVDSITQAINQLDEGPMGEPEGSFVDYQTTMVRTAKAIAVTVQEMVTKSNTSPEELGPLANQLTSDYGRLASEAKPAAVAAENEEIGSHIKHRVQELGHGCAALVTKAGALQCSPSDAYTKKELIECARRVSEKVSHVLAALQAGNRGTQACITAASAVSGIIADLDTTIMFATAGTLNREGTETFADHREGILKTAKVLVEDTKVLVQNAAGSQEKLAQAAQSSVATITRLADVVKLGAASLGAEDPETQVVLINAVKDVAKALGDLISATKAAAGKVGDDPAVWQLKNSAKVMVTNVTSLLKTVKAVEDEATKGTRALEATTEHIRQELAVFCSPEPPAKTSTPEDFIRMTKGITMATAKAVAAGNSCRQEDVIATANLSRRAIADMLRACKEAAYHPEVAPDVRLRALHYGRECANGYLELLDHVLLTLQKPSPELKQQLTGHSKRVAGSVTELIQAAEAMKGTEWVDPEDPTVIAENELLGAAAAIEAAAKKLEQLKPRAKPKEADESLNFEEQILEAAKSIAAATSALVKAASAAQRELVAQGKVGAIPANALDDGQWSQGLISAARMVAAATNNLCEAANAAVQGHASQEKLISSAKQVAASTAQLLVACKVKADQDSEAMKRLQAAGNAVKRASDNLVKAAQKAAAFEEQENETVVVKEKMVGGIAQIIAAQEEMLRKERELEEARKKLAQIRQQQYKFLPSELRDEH

| Substance | talin association with β3 [1] | co-immunoprecipitation between Gα13 and β3 (Gα13 binding to β3) | Gα13 binding to β3 (co-immunoprecipitation of β3 with Gα13) (Gα13 binding to β3; platelet lysates, 250 μM peptide) |
| --- | --- | --- | --- |
| Myr-EEERA [mP5] | not | inhibited | – |
| Myristoyl-KFEEERA [mP7] | – | inhibited | – |
| Myristoyl-KFEEERARAKWDT [mP13] | inhibited | inhibited | – |
| Myristoyl-LLARRPTKGIHEY [mSRI] | – | – | inhibited |
